Laboratory results taken from patent US4278686A, “Carbapenum derivatives, a process for their preparation and their use in pharmaceutical compositions and intermediates” (Beecham Group Limited, priority 1978, dated 1981).

Key:
Format in all cases: cell-based
[1] = system: Staphylococcus aureus Oxford; assay: minimum inhibitory concentration, Staphylococcus aureus Oxford (DST agar+10% horse blood)
Method: (§1) The minimum inhibitory concentrations (MIC) of the compound (e54) was determined using a standard DST agar+10% horse blood substrate. The tests used an undiluted inoculum of bacteria. […]
(§2) The minimum inhibitory concentrations (MIC) of this compound was determined using a standard DST agar+10% horse blood substrate.
(§3) The minimum inhibitory concentrations (MIC) of this compound was determined using a standard DST agar+10% horse blood substrate. The tests used an undiluted inoculum of bacteria.

Klebsiella aerogenes A = assay: minimum inhibitory concentration, Klebsiella aerogenes A (DST agar+10% horse blood)
Method: as §1, §2, §3

Streptococcus faecalis I = assay: minimum inhibitory concentration, Streptococcus faecalis I (DST agar+10% horse blood); settings: Enterococcus faecalis
Method: as §1, §2, §3

Proteus mirabilis C977 = assay: minimum inhibitory concentration, Proteus mirabilis C977 (DST agar+10% horse blood)
Method: as §1, §2, §3

Escherichia coli JT 39 = assay: minimum inhibitory concentration, Escherichia coli JT 39 (DST agar+10% horse blood); settings: JT39
Method: as §1, §2, §3

E. coli ESS = assay: minimum inhibitory concentration, E. coli ESS (DST agar+10% horse blood); settings: Escherichia coli
Method: as §1, §2, §3

Enterobacter cloacae N1 = assay: minimum inhibitory concentration, Enterobacter cloacae N1 (DST agar+10% horse blood); settings: Enterobacter cloacae, Enterobactor cloacae N1
Method: as §1, §2, §3

Bacillus subtilis A = assay: minimum inhibitory concentration, Bacillus subtilis A (DST agar+10% horse blood)
Method: as §1, §2, §3

[2] = system: Staphylococcus aureus 1517; assay: minimum inhibitory concentration, Staphylococcus aureus 1517 (DST agar+10% horse blood)
Method: as §1, §2, §3

Pseudomonas aeruginosa A = assay: minimum inhibitory concentration, Pseudomonas aeruginosa A (DST agar+10% horse blood)
Method: as §1, §2, §3

Proteus morganii I580 = assay: minimum inhibitory concentration, Proteus morganii I580 (DST agar+10% horse blood); settings: Morganella morganii; Proteus morganii I580; DST agar+10% horse blood; read-out: MIC
Method: The minimum inhibitory concentrations (MIC) of the compound (e54) was determined using a standard DST agar+10% horse blood substrate. The tests used an undiluted inoculum of bacteria.
Sodium (5R,6S)-3-(2-acetamidoethylthio)--6-ethyl-7-oxo-1-azabicyclo[3.2.0]-hept-2-ene-2-carboxylate [drawing 60] p-Methoxycarbonylbenzyl (5R,6S)-3-(2-acetamidoethylthio)-6-ethyl-7-oxo-1-azabicyclo[3.2.0]hept-2-ene-2-carboxylate (e58) (18 mg) was added to the cathodic compartment of an H-type divided two-compartment electrochemical cell, with a mercury cathode and a platinum anode. The cell contained degassed 0.1 M n-Bu4 NI in dimethylformamide as electrolyte. The volume of the catholyte was about 15 ml [glacial acetic acid (about 10 mg) added] and the volume of the anolyte was about 8 ml. A potentiostat was employed to fix the potential of the cathode at -1.9 V with respect to the standard calomel electrode, and the initial current, about 56 mA, fell to about 15 mA after about 15 min. The catholyte was removed from the cell and the solvent was evaporated in vacuo. The residue was taken up in CH2 Cl2 (10 ml) and washed with water (10 ml). The aqueous phase was separated and washed with CH2 Cl2. The aqueous phase, containing the tetrabutylammonium salt corresponding to (e63) was passed through an Amberlite IR 120 (Na form) column (17×1 cm) and the eluate was reduced to low volume by evaporation in vacuo. The residue was passed through a Biogel P-2 column, to yield fractions containing sodium (5R,6S)-3-(2-acetamidoethylthio)-6-ethyl-7-oxo-1-azabicyclo[3.2.0]hept-2-ene-2-carboxylate (e63) having λmax 298 nm. The minimum inhibitory concentrations (MIC) of this compound was determined using a standard DST agar+10% horse blood substrate.
Sodium (5R,6S)-3-[(E)-2-acetamidoethenylthio]-6-ethyl-7-oxo-1-azabicyclo[3.2.0]hept-2-ene-2-carboxylate [drawing 68] p-Methoxycarbonylbenzyl (5R,6S)-3-[(E)-2-acetamidoethenylthio]-6-ethyl-7-oxo-1-azabicyclo[3.2.0]hept-2-ene-2-carboxylate (e72) (64 mg) in solution in 0.1 M (n-C4 H9)4 NBF4 in dry DMF was added to the cathodic compartment of a divided cylindrical electrochemical cell, with a mercury cathode and platinum anode. The volume of electrolyte in the cathodic compartment was about 25 ml, and in the anodic compartment about 10 ml. Acetic acid (12 mg) was added to the cathodic compartment and ethanol (250 mg) was added to the anodic compartment. The cell was degassed by passing argon for 30 min. The potentiostat was engaged to maintain the potential of the cathode at -1.9 V w.r.t. standard calomel electrode. The initial current (40 mA) fell to about 5 mA after 25 min. The solvent was removed from the catholyte by evaporation in vacuo and the residual oil was taken up in CH2 Cl2 (20 ml) and extracted with water (15 ml) containing sodium tetrafluoroborate (100 mg). The aqueous extract was washed with CH2 Cl2 and then passed down an Amberlite 1R 120 column (1×20 cm) in the sodium form. The volume of the eluate was reduced to about 5 ml by evaporation in vacuo and loaded onto a Biogel P-2 column (18×3 cm). Elution with water yielded fractions containing sodium (5R,6S)-3-[(E)-2-acetamidoethenylthio]-6-ethyl-7-oxo-1-azabicyclo[3.2.0]hept-2-ene-2-carboxylate (e73) λmax 308 nm. The minimum inhibitory concentrations (MIC) of this compound was determined using a standard DST agar+10% horse blood substrate.
Sodium (5R,6R)-3-[(E)-2-acetamidoethenylthio]-6-(1-benzylthioethyl)-7-oxo-1-azabicyclo[3.2.0]hept-2-ene-2-carboxylate [drawing 87] The least polar crystalline isomer of the ester (e93) (40 mg) obtained in Example 70 was added to a mixture of 5% Pd on C (60 mg) in 20% aqueous dioxan (5 ml) which had been prehydrogenated for 0.5 h. Hydrogenation was continued for 4 h and the mixture was filtered through Celite after adding NaHCO3 (7 mg) and water (10 ml). The solution was concentrated to a volume of about 10 ml and was then washed with ethyl acetate (3×30 ml). […]

[3] = system: Streptococcus pneumoniae CN33; assay: minimum inhibitory concentration, Streptococcus pneumoniae CN33 (DST agar+10% horse blood)
Method: as §1, §2, §3

Escherichia coli 0111 = assay: minimum inhibitory concentration, Escherichia coli 0111 (DST agar+10% horse blood)
Method: as §1, §2, §3

Shigella sonnei MB 11967 = assay: minimum inhibitory concentration, Shigella sonnei MB 11967 (DST agar+10% horse blood); settings: MB11967
Method: as §1, §2, §3

Serratia marcescens US20 = assay: minimum inhibitory concentration, Serratia marcescens US20 (DST agar+10% horse blood)
Method: as §1, §2, §3

[4] = system: Staphylococcus aureus Russell; assay: minimum inhibitory concentration, Staphylococcus aureus Russell (DST agar+10% horse blood)
Method: as §1, §2, §3

Proteus rettgeri WM16 = assay: minimum inhibitory concentration, Proteus rettgeri WM16 (DST agar+10% horse blood); settings: Providencia rettgeri
Method: as §1, §2, §3

[5] = system: Streptococcus pyogenes CN10; assay: minimum inhibitory concentration, Streptococcus pyogenes CN10 (DST agar+10% horse blood)
Method: as §1, §2, §3

Citrobacter freundii E8 = assay: minimum inhibitory concentration, Citrobacter freundii E8 (DST agar+10% horse blood)
Method: as §1, §2, §3

[6] = system: Salmonella typhimurium CT10; assay: minimum inhibitory concentration, Salmonella typhimurium CT10 (DST agar+10% horse blood); settings: Salmonella enterica
Method: as §1, §2, §3

Proteus vulgaris WO91 = assay: minimum inhibitory concentration, Proteus vulgaris WO91 (DST agar+10% horse blood)
Method: as §1, §2, §3

Row | SMILES | MIC [1] | MIC (Klebsiella aerogenes A) | MIC (Streptococcus faecalis I) | MIC (Proteus mirabilis C977) | MIC (Escherichia coli JT 39) | MIC (E. coli ESS) | MIC (Enterobacter cloacae N1) | MIC (Bacillus subtilis A) | MIC [2] | MIC (Pseudomonas aeruginosa A) | MIC (Proteus morganii I580) | MIC [3] | MIC (Escherichia coli 0111) | MIC (Shigella sonnei MB 11967) | MIC (Serratia marcescens US20) | MIC [4] | MIC (Proteus rettgeri WM16) | MIC (Citrobacter freundii E8) | MIC [6] | MIC (Proteus vulgaris WO91) | further results
1 | CC(=O)N/C=C/SC1=C(C(=O)[O-])N2C(=O)[C@H](C(C)SCc3ccccc3)[C@H]2C1.[Na+] (stereo partly drawn) [e94, Sodium (5R,6R)-3-[(E)-2-acetamidoethenylthio]-6-(1-benzylthioethyl)-7-oxo-1-azabicyclo[3.2.0]hept-2-ene-2-carboxylate] | 0.4 µg/mL | 3.1 µg/mL | 25 µg/mL | 12.5 µg/mL | 3.1 µg/mL | 0.4 µg/mL | 3.1 µg/mL | 1.6 µg/mL | 50 µg/mL | 50 µg/mL | 6.2 µg/mL | 0.2 µg/mL | 3.1 µg/mL | 1.6 µg/mL | 6.2 µg/mL | 0.8 µg/mL | 6.2 µg/mL | 6.2 µg/mL | 1.6 µg/mL | 6.2 µg/mL | MIC [5]: 0.4 µg/mL
2 | CC[C@@H]1C(=O)N2C(C(=O)[O-])=C(S/C=C/NC(C)=O)C[C@H]12.[Na+] [e73, sodium (5R,6S)-3-[(E)-2-acetamidoethenylthio]-6-ethyl-7-oxo-1-azabicyclo[3.2.0]hept-2-ene-2-carboxylate] | 0.6 µg/mL | 2.5 µg/mL | 40 µg/mL | 10 µg/mL | 10 µg/mL | 0.3 µg/mL | 2.5 µg/mL | 1.2 µg/mL | > 40 µg/mL | > 40 µg/mL | 5 µg/mL | ≤ 0.1 µg/mL | 2.5 µg/mL | 2.5 µg/mL | 5 µg/mL | 2.5 µg/mL | 10 µg/mL | 2.5 µg/mL | 1.2 µg/mL | 10 µg/mL | –
3 | CC[C@@H]1C(=O)N2C(C(=O)[O-])=C(SCCNC(C)=O)C[C@H]12.[Na+] [e63, sodium (5R,6S)-3-(2-acetamidoethylthio)-6-ethyl-7-oxo-1-azabicyclo[3.2.0]hept-2-ene-2-carboxylate] | 0.6 µg/mL | 1.2 µg/mL | 40 µg/mL | 10 µg/mL | 10 µg/mL | 1.2 µg/mL | 20 µg/mL | – | 10 µg/mL | > 40 µg/mL | 40 µg/mL | – | 2.5 µg/mL | 2.5 µg/mL | 10 µg/mL | 0.6 µg/mL | 10 µg/mL | 2.5 µg/mL | 2.5 µg/mL | 5 µg/mL | MIC [5]: 0.1 µg/mL
